Data reported in patent US20250090597A1, “AIRWAY BASAL CELL ENGRAFTMENT METHODS” (TRUSTEES OF BOSTON UNIVERSITY, priority 2023, published 2025).

Tests used:
[1] = test system: tracheal airway epithelial cells; test: Post-polidocanol injury mouse tracheal histological time series; format: in vivo
From the text: Intra-tracheal delivery of polidocanol was employed to ablate tracheal airway epithelial cells (see e.g., FIG. 9A). […] Am J Resp Cell Mol 24, 662-670; Engler et al. (2020). Cell Reports 33, 108553; the contents of which are incorporated herein by reference in their entireties. It is contemplated herein that acute epithelial sloughing can generate a temporarily exposed niche on the airway basement membrane for exogenous cells to land. To determine the time window for BC transplantation post polidocanol-mediated injury, tracheal tissues were analyzed in a time series following injury. […] Therefore, donor cells were transplanted five hours post-injury.
Adult recipient mice (8-16 weeks old) were used for all transplantation studies. Tracheal epithelial injury was induced in isoflurane anesthetized mice by intratracheal delivery of 20 μL of 2% polidocanol using the tongue pull method, followed by recovery prior to cell delivery 5-5.5 hours later. Specifically, the recipient animal was anesthetized with 3% isoflurane until the animal developed exaggerated respiratory movements at rates of 1-1.5 breath/second. Then the mouse was lightly restrained by operator, while a second operator delivered polidocanol solution directly into the posterior oropharynx of the mouse. The nose was gently held to encourage the animal to aspirate through the […], about 2-4 times, or until the liquid was no longer visible. For cell transplants, mice were re-anesthetized and 6×10^6 primary BCs or iBCs suspended in 20 μL of DMEM were intratracheally instilled as above.

[2] = test system: tracheal airway epithelial cells; details: Borthwick et al. 2001; Engler et al. 2020; cited from earlier work

With `CCCCCCCCCCCCOCCOCCOCCOCCOCCOCCOCCOCCOCCO` [polidocanol] the “tracheal epithelium state after polidocanol exposure” value ([1]; 12 hours after polidocanol exposure) was “patches of rounded or cuboidal epithelial cells characterized the regenerating epithelium”, the “tracheal epithelial sloughing after polidocanol exposure” value ([1]; five hours after polidocanol exposure) was “epithelial sloughing was more complete with sporadic residual individual cells and more denuded basement membrane” and the “tracheal epithelium state after polidocanol exposure” value ([1]; seven hours after polidocanol exposure) was “residual cells had flattened to cover the basement membrane”. The “tracheal epithelial sloughing after polidocanol exposure” value ([1]; three hours after polidocanol exposure, 20 μL of 2% polidocanol intratracheal, H&E) was “Extensive epithelial sloughing” and the “time to tracheal epithelial sloughing after polidocanol exposure” value [2] was “within three hours”.
